Test results from PMC10835127, “Viruses traverse the human proteome through peptide interfaces that can be biomimetically leveraged for drug discovery” (Proceedings of the National Academy of Sciences of the …, 2024).
Values after ≈ are worked out from the molar mass of the structure shown. Where two headings read alike, the source gives them in different places.

How the values were obtained:
[1] = Plasma protein binding by equilibrium dialysis, murine; assay type: in vitro ADME; settings: mouse, read-out: PPB (% bound)
Description: The free and bound fractions of the tested compounds in mouse and human plasma were determined by equilibrium dialysis using a 96-well Teflon dialysis unit (HTDialysis plate complete unit, HT Dialysis, USA). The HTDialysis plate complete unit consists of a 96-well plate with wells vertically bisected by a semipermeable membrane (membranes strips 12 to 14 kDa) creating two chambers. A 125 μL aliquot of plasma containing tested compound at 10 μM was placed on one side and 125 μL of Dulbecco‘s phosphate buffered saline (D-PBS) on the other. The plate was incubated at 37 °C for 6 hr under gentle agitation. Then, samples from both plasma and buffer compartment were analyzed by a LC-MS/MS method to measure the free fraction and the bound fraction to the plasma proteins. […]

[2] = Cryopreserved hepatocyte stability, human; assay type: in vitro ADME; settings: cryopreserved hepatocytes, read-out: CLint hHep
Description: (§1) Cryopreserved hepatocyte stability
(§2) Tested compounds (1 μM) were incubated with human cryopreserved hepatocytes (pool of 5) (IVT Celsis) and mouse cryopreserved hepatocytes (IVT Celsis). Hepatocytes (1, 0.5 or 0.25 x10^6 cells/mL, Williams’ Medium E (WME) with 4 mM L-glutamine and 2 mM magnesium sulphate) containing tested compound (final substrate concentration 1 μM; final DMSO concentration 0.25 %) were preincubated at 37 °C. The final incubation volume was 500 μl. 3 species-specific control compounds were included with each species. At 7 time points (0, 10, 20, 40, 60, 90, and 120 min), reactions were stopped by transferring 50 μl of the incubation mixture into 0.5 μM carbamazepine in cold acetonitrile. Tested compound concentrations were analyzed by LC-MS/MS and the resulting data were used to determine the half-life and intrinsic clearance of the compound in each species. […]

influenza A H1N1 virus = experiment: microbe, parasite or virus in culture
PK parameters in mice = assay type: in vivo, male Swiss (CD-1) mice; settings: male, Swiss (CD-1), plasma, mouse
Description: PK parameters and tissue distribution in mice
The pharmacokinetic profiles of the tested compounds were evaluated in male Swiss (CD-1) mice around 5-6 weeks old (3 animals per sampling time). […]
0.2 % Tween 80 in water. Blood samples were collected (0.25 mL) from the sinus retro-orbital […]
24 hr for p.o. route. The blood samples were immediately centrifuged at 2500 rpm at +4 °C, and the plasma was stored at −80 °C. 50 μL of plasma sample was taken and 150 μL of acetonitrile was added. After protein precipitation, analysis of the molecule was performed using LC-MS/MS to determine plasma compound concentration. For liver and lung collection, 3 animals per group were involved and sampled after 2 hr and 24 hr upon 20 mg/kg p.o. administration. Animals were perfused with around 10 mL of saline solution directly into the heart to extract the maximal blood sample from the liver and the lung. Animals were then sacrificed by cervical dislocation and liver

[3] = Microsomal stability, mouse liver microsomes; assay type: in vitro ADME; settings: male, CD-1, mouse, pH 7.4; murine liver microsomes; read-out: CLint mLM
Description: (§3) Tested compounds (1 μM) were incubated with pooled human liver microsomes (Xenotech; pooled male and female) and pooled mouse liver microsomes (Xenotech; male CD-1 mice).
(§4) Microsomes (final protein concentrations of 0.25 and 0.5 mg/ml, 0.1 M phosphate buffer pH 7.4) containing tested compound (final substrate concentration 1 μM; final DMSO concentration 0.25 %) were preincubated at 37 °C prior to the addition of NADPH (final concentration 1 mM) to initiate the reaction. The final incubation volume was 200 μl. 3 species-specific control compounds were included with each species. At 5 time points (0, 5, 10, 20, and 40 min), reactions were stopped by transferring 50 μl of the incubation mixture into 0.5 μM carbamazepine in acetonitrile. Tested compound concentrations were analyzed by LC-MS/MS and the resulting data were used to determine the half-life and intrinsic clearance of the compound in each

[4] = Cryopreserved hepatocyte stability, mouse; assay type: in vitro ADME; settings: cryopreserved hepatocytes, murine hepatocytes, read-out: CLint mHep
Description: as §1, §2

Kinetic solubility = assay type: physicochemical; settings: PBS pH 7.4 buffer, pH 7.4, aqueous buffer, kinetic from dmso stock
Description: 10 mM DMSO Stock solutions of tested compounds were distributed into filtration plate (Multiscreen Durapore 0.45µm) containing PBS pH 7.4 buffer to a final maximum concentration of 130 μM (1.3 % DMSO/buffer). Solutions or suspensions were shaken for 30 min at room temperature. The samples were filtered under vacuum into a collection plate and diluted 50 % with ACN for UV analysis. Quantification was performed against a Reference plate containing the same tested compounds fully solubilized in ACN/PBS buffer 1:1. Reference and Sample plates were analyzed by UPLC/UV-MS using a generic UPLC method. […]

[5] = system: diet-induced obese model of NASH; experiment: NASH mouse model (AMLN diet-induced obese); assay type: in vivo, C57BL/6JRj mice; settings: oral, 8 wk; dEF3122 twice daily 7 or 20 mg/kg, OCA once daily 7 mg/kg; vs vehicle
Description: Fig. 6. Effect of the lead compound in a diet-induced obese model of NASH. Mice fed with a high fat, high fructose, and cholesterol supplemented diet for 38 wk were then treated in the last 8 wk with vehicle, dEF3122, or OCA (obeticholic acid) at indicated concentrations (n = 12 animals per group). (A and B) Histopathological mean score changes between the beginning and end of the treatment for liver portal inflammation (A) and liver portal fibrosis (B) are shown with representative stained liver sections of hematoxylin and eosin (H&E) and picrosirius red stains, respectively. (C–E) (C) Areas of kidney fibrosis at the end of the treatment are shown as % of the total area of the selected fields with representative sections of the kidney stained with picrosirius red. (D) % CD3 and (E) % F4/80 positive areas in kidneys with representative sections of CD3 and F4/80 immunostainings. *P < 0.05, **P < 0.01, and ***P < 0.001 from the T test with a preliminary nonsignificant Shapiro–Wilk test or from Wilcoxon signed–rank test otherwise.
Five-week-old male C57BL/6JRj mice were fed either chow diet or AMLN diet (40% total fat kcal of which 18.5% were trans-fat kcal, 20% fructose, and 2% cholesterol). This diet was maintained for 30 wk prior to study initiation. Three weeks prior to study initiation, liver biopsies were taken, and animals with steatosis grade <2 and fibrosis stage <1 were excluded from the study. Prior to the first administration of the test compound, stratified randomization of mice into treatment groups was performed according to collagen 1a1 (IHC) morphometry from the week 3 biopsies. Each treatment group consisted of 12 mice. For a total of 8 wk, compound dEF3122 was administered orally, twice daily at a concentration of 7 mg/kg or 20 mg/kg. OCA was administered orally, once daily at a concentration of 7 mg/kg. Animals were killed at the end of the treatment, and livers and kidneys were collected. […]
NASH histopathology and immunochemistry
Livers were fixed in 10 % neutral buffered formalin and paraffin-embedded; and sections were stained with H&E and picrosirius red to analyze their morphology. Histopathological analysis was performed by a pathologist blinded to the study. Fibrosis was evaluated by quantification of the picrosirius red positive areas. Inflammation was graded by counting the H&E positive inflammatory foci per field.
Kidneys were fixed in 4 % PFA and paraffin embedded. 4-μm sections were stained with picrosirius red. Images were acquired using a digital slide scanner (Nanozoomer S210 Digital Slide Scanner, Hamamatsu). Renal lesions were blindly examined by a renal pathologist. The extent of interstitial fibrosis was quantified using Image J software (NIH) on Sirius red scanned colored sections. In short, at least 20 random selected fields (original magnification, ×200) across the kidney cortex were analyzed per each kidney section, and the results were expressed as percentages of the total area of the selected fields.
For immunohistochemistry, 4-µm sections of paraffin-embedded kidneys were submitted for appropriate antigen retrieval by high pressure heating in a solution of Tris EDTA Tween or in a citrate solution. Then, sections were then incubated overnight at 4°C with the following antibodies: rabbit monoclonal anti-CD3 (Abcam, 1:100) and rat monoclonal anti- F4/80 (Biorad, 1:100). After washing, sections were incubated with appropriate amplification secondary antibody: biotin-coupled anti-rabbit (GE Healthcare) for CD3 and biotin-coupled anti-rat (Vector Laboratories) for F4/80, and then incubated with streptavidin coupled HRP (Southern). At the end, DAB (DAKO) staining was used to detect HRP. For quantification of CD3+ and F4/80+ renal cells, the degrees of cellular infiltrate were automatically quantified using ImageJ software (NIH) and expressed as a percentage of the surface area of the positive staining per field, in at least 10 random fields perp

[6] = Microsomal stability, human liver microsomes; assay type: in vitro ADME; settings: both sexes, pH 7.4, read-out: CLint hLM
Description: as §3, §4

[7] = H1N1, A549, read-out: IC50 for the inhibition of influenza virus replication

| SMILES | fraction unbound at 6 h, 10 µM [1] | microsomal CLint at 1 µM [3] [µL/min/mg] | solubility kinetic at 30 min (Kinetic solubility) [µM] | IC50 (influenza A H1N1 virus; [7]) [nM] | microsomal CLint at 1 µM [6] [µL/min/mg] | other results |
| --- | --- | --- | --- | --- | --- | --- |
| O=C(Nc1scc(C2CCc3ccccc3C2)c1C(=O)O)c1ccccc1 (racemic) [dEF2905] | 0.001 | 29 | 48 (≈ 18.1 µg/mL) |  |  | hepatocyte CLint at 1 µM [2]: 65 µL/min/1e6 cells; IC50 (influenza A H1N1 virus; H1N1, A549, read-out: Neuraminidase activity assay IC50): 18 nM; half-life (PK parameters in mice; iv 0.25 mg/kg, read-out: T1/2 iv (converted)): 3.8 h; Cmax (PK parameters in mice; po 2 mg/kg (dose for AUC)): 1140 ng/mL; bioavailability (PK parameters in mice; po 2 mg/kg, iv 0.25 mg/kg): 33%; hepatocyte CLint at 1 µM [4]: < 5 µL/min/1e6 cells |
| CC[C@H]1[C@@H](O)[C@@H]2[C@H](CC[C@]3(C)[C@@H]([C@H](C)CCC(=O)O)CC[C@@H]23)[C@@]2(C)CC[C@@H](O)C[C@@H]12 [OCA, obeticholic acid, reference compound] |  |  |  |  |  | liver portal fibrosis [5]: significantly reduced portal fibrosis; liver portal inflammation [5]: failed to alleviate portal inflammation |
| O=C(Nc1ccc(Cl)cc1)c1c(NC(=O)C2CCCCC2C(=O)O)sc2c1CCC2 (stereo not drawn) [dEF384] | < 0.01 | < 20 | 74 (≈ 33.1 µg/mL) | 5000 | < 14 | half-life (PK parameters in mice; iv 0.9 mg/kg, read-out: T1/2 iv (converted)): 1.08 h; Cmax (PK parameters in mice; po 10 mg/kg): 31300 ng/mL; bioavailability (PK parameters in mice; po 10 mg/kg, iv 0.9 mg/kg): 71%; half-life (PK parameters in mice; po 10 mg/kg, read-out: T1/2 po (converted)): 1.74 h |
| CCOC(=O)c1c(NC(=O)C2CCCCC2C(=O)O)sc2c1CCC(C(C)(C)C)C2 (stereo not drawn) [dEF2586] |  |  | 173 (≈ 75.4 µg/mL) | 3000 |  |  |
| COc1ccc(C(=O)Nc2sc3c(c2C(=O)O)CCC(C(C)(C)C)C3)cc1 (stereo not drawn) [dEF2665] | 0.001 | 50 | < 5 | 150 | 38 |  |
